Source: ChEMBL document CHEMBL3046395, “Synthesis and pharmacological investigation of novel 3-(benzyl)-2-substituted amino-3H-quinazolin-4-ones as analgesic and anti-inflammatory agents” (Med Chem Res, 2008)

Columns and labels:
Rattus norvegicus [1] = test: Anti-inflammatory activity in Rattus norvegicus (rat) assessed as inhibition of carrageenan-induced paw edema at 20 mg/kg, po measured at 30 min post carrageenan-challenge (reference value: 5.1 +/- 0.29%); type: functional; details: 0.5 h
Rattus norvegicus [2] = test: Anti-inflammatory activity in Rattus norvegicus (rat) assessed as inhibition of carrageenan-induced paw edema at 10 mg/kg, po measured at 30 min post carrageenan-challenge (reference value: 5.1 +/- 0.29%); type: functional; details: 0.5 h
Mus musculus [3] = test: Analgesic activity in Mus musculus Wistar albino (mouse) at 20 mg/kg, po after 3 hr by tail-flick test (reference value: 4 +/- 0.91%); type: functional
Mus musculus [4] = test: Analgesic activity in Mus musculus Wistar albino (mouse) at 10 mg/kg, po after 3 hr by tail-flick test (reference value: 4 +/- 0.91%); type: functional
Mus musculus [5] = test: Analgesic activity in Mus musculus Wistar albino (mouse) at 20 mg/kg, po after 2 hr by tail-flick test (reference value: 4 +/- 0.59%); type: functional
Mus musculus [6] = test: Analgesic activity in Mus musculus Wistar albino (mouse) at 10 mg/kg, po after 2 hr by tail-flick test (reference value: 4 +/- 0.59%); type: functional
Mus musculus [7] = test: Analgesic activity in Mus musculus Wistar albino (mouse) at 20 mg/kg, po after 1 hr by tail-flick test (reference value: 6 +/- 0.49%); type: functional
Mus musculus [8] = test: Analgesic activity in Mus musculus Wistar albino (mouse) at 10 mg/kg, po after 1 hr by tail-flick test (reference value: 6 +/- 0.49%); type: functional
Mus musculus [9] = test: Analgesic activity in Mus musculus Wistar albino (mouse) at 20 mg/kg, po after 30 min by tail-flick test (reference value: 2 +/- 0.35%); type: functional
Mus musculus [10] = test: Analgesic activity in Mus musculus Wistar albino (mouse) at 10 mg/kg, po after 30 min by tail-flick test (reference value: 2 +/- 0.35%); type: functional
Rattus norvegicus [11] = test: Gastrointestinal toxicity in Rattus norvegicus Wistar albino (rat) assessed as ulcer index at 20 mg/kg, ip administered QD for 3 days measured on day 4 (reference value: 0.15 +/- 0.32); type: organism-based; parameters: dose 20 mg/kg, route intraperitoneal; details: in vivo, 72 h
Rattus norvegicus [12] = test: Anti-inflammatory activity in Rattus norvegicus (rat) assessed as inhibition of carrageenan-induced paw edema at 20 mg/kg, po measured at 3 hr post carrageenan-challenge (reference value: 3.2 +/- 0.93%); type: functional
Rattus norvegicus [13] = test: Anti-inflammatory activity in Rattus norvegicus (rat) assessed as inhibition of carrageenan-induced paw edema at 10 mg/kg, po measured at 3 hr post carrageenan-challenge (reference value: 3.2 +/- 0.93%); type: functional
Rattus norvegicus [14] = test: Anti-inflammatory activity in Rattus norvegicus (rat) assessed as inhibition of carrageenan-induced paw edema at 20 mg/kg, po measured at 2 hr post carrageenan-challenge (reference value: 5.7+/- 0.32%); type: functional
Rattus norvegicus [15] = test: Anti-inflammatory activity in Rattus norvegicus (rat) assessed as inhibition of carrageenan-induced paw edema at 10 mg/kg, po measured at 2 hr post carrageenan-challenge (reference value: 5.7+/- 0.32%); type: functional
Rattus norvegicus [16] = test: Anti-inflammatory activity in Rattus norvegicus (rat) assessed as inhibition of carrageenan-induced paw edema at 20 mg/kg, po measured at 1 hr post carrageenan-challenge (reference value: 6.1 +/- 0.27%); type: functional
Rattus norvegicus [17] = test: Anti-inflammatory activity in Rattus norvegicus (rat) assessed as inhibition of carrageenan-induced paw edema at 10 mg/kg, po measured at 1 hr post carrageenan-challenge (reference value: 6.1 +/- 0.27%); type: functional

SMILES	inhibition in vivo at 20 mg/kg (Rattus norvegicus [1]) [%]	inhibition in vivo at 10 mg/kg (Rattus norvegicus [2]) [%]	Activity (Mus musculus [3]) [%]	Activity (Mus musculus [4]) [%]	Activity (Mus musculus [5]) [%]	Activity (Mus musculus [6]) [%]	Activity (Mus musculus [7]) [%]	Activity (Mus musculus [8]) [%]	Activity (Mus musculus [9]) [%]	Activity (Mus musculus [10]) [%]	UI (Rattus norvegicus [11])	inhibition in vivo at 20 mg/kg (Rattus norvegicus [12]) [%]	inhibition in vivo at 10 mg/kg (Rattus norvegicus [13]) [%]	inhibition in vivo at 20 mg/kg (Rattus norvegicus [14]) [%]	inhibition in vivo at 10 mg/kg (Rattus norvegicus [15]) [%]	inhibition in vivo at 20 mg/kg (Rattus norvegicus [16]) [%]	inhibition in vivo at 10 mg/kg (Rattus norvegicus [17]) [%]
CCC(CC)=NNc1nc2ccccc2c(=O)n1Cc1ccccc1	59	49	50	41	81	72	79	69	74	63	0.5	41	30	70	56	68	53
C/C(=N\Nc1nc2ccccc2c(=O)n1Cc1ccccc1)c1ccccc1	48	40	37	30	69	57	62	47	57	45	0.6	33	27	58	46	53	41
O=c1c2ccccc2nc(NN=C2CCCCC2)n1Cc1ccccc1	45	36	41	34	61	54	58	46	51	42	0.59	32	25	58	45	52	38
Cc1ccc(/C=N/Nc2nc3ccccc3c(=O)n2Cc2ccccc2)cc1	46	38	40	35	61	54	59	49	58	47	0.65	38	29	53	42	49	38
